Measurements from patent US20210364534A1, “METHODS OF USING HISTATIN FOR DIAGNOSING AND TREATING A DRY EYE DISEASE OR OTHER OCULAR DISEASES” (THE BOARD OF TRUSTEES OF THE UNIVERSITY OF ILLINOIS, priority 2018, published 2021).
Marks after values point to notes of the source that are not given here. Non-standard residues stand in square brackets, D forms with d. No end group written: not given here. pS = N[C@@H](COP(=O)(O)O)C(=O)O

Legend:
[1] = tested on: Human corneal epithelial (HCE) cells; experiment: WST-1 cell viability of HCE cells exposed to benzalkonium chloride (BAK); assay type: cell-based; settings: BAK-treated HCE cells co-treated with histatin; FIG. 5
Protocol: Experiments were performed in triplicate. *<0.05, **<0.01. Bar represents SEM.
To determine whether histatins could improve symptoms of dry eye disease, cell viability assays were carried out in the presence of the toxic preservative benzalkonium chloride (BAK)(Yang, et al. (2017) Int. J. Mol. Sci. 18(3):509). Human corneal epithelial (HCE) cells were cultivated under standard conditions and viability was assessed using WST-1 reagent, a tetrazolium salt that is reduced to a red formazan dye by the mitochondrial dehydrogenases of metabolically active cells (Bartok, et al. (2015) EXCLI J. 14:123-132).

[2] = tested on: IL6; experiment: IL6 expression induced by BAK application to HCE cells; assay type: cell-based, Human; settings: BAK-treated HCE cells, histatin co-treatment
[3] = tested on: IL8; experiment: IL8 expression induced by BAK application to HCE cells; assay type: cell-based, Human; settings: BAK-treated HCE cells, histatin co-treatment
[4] = tested on: TNFα; experiment: TNFα expression induced by BAK application to HCE cells; assay type: cell-based, Human; settings: BAK-treated HCE cells, histatin co-treatment
[5] = tested on: dry eye disease murine model (BAK exposure); experiment: Murine model of dry eye disease (benzalkonium chloride exposure), NEI score; assay type: in vivo; settings: twice a day topical 80 μM, by 7 days, versus vehicle control (BSS); FIG. 6
Protocol: Results are based upon the National Eye Institute/Industry (NEI) grading scale (Lemp (1995) CLAO J. 21:221-232) in animals treated with H5 or Balanced Salt Solution (BSS). All experiments were performed in triplicate. *<0.05, **<0.01. Bar represents SEM.

[6] = tested on: human corneal epithelia; settings: Shah, et al. (2017) PLoS One 12(5):e0178030; cited from earlier work

Substance	HCE viability (WST-1) [1]	Decrease in cytokine expression IL6 mRNA [2]	Decrease in cytokine expression IL6 protein [2]	Decrease in cytokine expression IL8 mRNA [3]	Decrease in cytokine expression TNFα protein [4]	standardized dry eye disease score (NEI score) [5]	migration of human corneal epithelia [6]
Histatin 5 (DSHAKRHHGYKRKFHEKHHSHRGY) [Histatin H5]	improved	45%*	45%	46%*	32%**	reduced standardized dry eye disease score (NEI score) in a statistically significant manner	
Histatin-1 (D[pS]HEKRHHGYRRKFHEKHHSHREFPFYGDYGSNYLYDN) [Histatin H1]	improved	82%**	48%*	86%**	12%		promote migration
